Source: patent US10259810B2, “N-sulfonylated pyrazolo[3,4-b]pyridin-6-carboxamides and method of use” (AbbVie S.à.r.l., priority 2015, dated 2019)
Where two headings read alike, the source gives them in different places.

What was measured:
Format in all cases: cell-based
[1] = biological target: T1, ΔF508-CFTR (Homo sapiens, UniProt P13569, DEL508-508); experiment: CFTR cell surface levels using HRP-tagged ΔF508-CFTR expressing CFBE cells, in the presence of a co-corrector
T1 construct: host or cells: CFBE41o-, doxycycline-inducible
T1 sequence (P13569 with tags, fused parts or gaps DEL508-508): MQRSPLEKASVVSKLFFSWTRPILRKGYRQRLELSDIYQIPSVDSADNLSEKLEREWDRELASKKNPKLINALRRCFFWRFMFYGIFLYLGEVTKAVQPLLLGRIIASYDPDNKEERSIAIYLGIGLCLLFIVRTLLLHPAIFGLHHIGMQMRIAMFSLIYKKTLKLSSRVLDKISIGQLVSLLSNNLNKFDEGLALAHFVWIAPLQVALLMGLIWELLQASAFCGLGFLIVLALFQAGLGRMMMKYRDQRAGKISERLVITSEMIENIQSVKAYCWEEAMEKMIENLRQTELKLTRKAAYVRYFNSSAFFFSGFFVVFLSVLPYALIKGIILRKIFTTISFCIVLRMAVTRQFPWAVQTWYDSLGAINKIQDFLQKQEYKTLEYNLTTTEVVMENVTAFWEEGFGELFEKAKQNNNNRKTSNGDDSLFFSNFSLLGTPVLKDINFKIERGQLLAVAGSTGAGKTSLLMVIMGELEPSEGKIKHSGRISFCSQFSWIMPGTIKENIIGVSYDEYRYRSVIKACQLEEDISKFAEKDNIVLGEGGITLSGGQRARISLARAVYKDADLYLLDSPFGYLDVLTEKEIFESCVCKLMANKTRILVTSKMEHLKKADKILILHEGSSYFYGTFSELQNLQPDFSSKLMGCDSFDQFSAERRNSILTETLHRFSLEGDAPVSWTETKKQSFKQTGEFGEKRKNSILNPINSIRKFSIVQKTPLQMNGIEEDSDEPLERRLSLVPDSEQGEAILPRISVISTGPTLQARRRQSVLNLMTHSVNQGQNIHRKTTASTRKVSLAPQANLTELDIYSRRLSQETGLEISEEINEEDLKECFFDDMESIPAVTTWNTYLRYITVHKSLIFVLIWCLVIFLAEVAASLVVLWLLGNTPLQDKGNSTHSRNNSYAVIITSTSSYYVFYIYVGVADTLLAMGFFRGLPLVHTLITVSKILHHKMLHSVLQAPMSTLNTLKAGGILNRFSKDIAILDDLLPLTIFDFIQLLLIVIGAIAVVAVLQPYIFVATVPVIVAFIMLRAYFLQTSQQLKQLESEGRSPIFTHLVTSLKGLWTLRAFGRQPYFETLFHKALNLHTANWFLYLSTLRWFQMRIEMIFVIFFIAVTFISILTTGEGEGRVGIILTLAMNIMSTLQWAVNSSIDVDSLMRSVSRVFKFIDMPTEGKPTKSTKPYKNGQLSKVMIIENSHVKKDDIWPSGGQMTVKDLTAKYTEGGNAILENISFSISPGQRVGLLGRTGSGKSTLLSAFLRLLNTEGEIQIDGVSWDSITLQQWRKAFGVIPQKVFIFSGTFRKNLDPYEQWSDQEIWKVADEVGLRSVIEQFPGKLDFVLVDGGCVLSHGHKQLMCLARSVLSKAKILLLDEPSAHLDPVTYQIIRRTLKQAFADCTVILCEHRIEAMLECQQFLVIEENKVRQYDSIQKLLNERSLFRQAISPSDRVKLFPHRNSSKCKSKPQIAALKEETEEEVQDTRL
Procedure, shortened: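 Chemiluminescent read-out of surface HRP (15 min, dark) after PBS washes. Activity is normalized as 100×(sample−DMSO)/(3 μM co-corrector alone−DMSO).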

[2] = biological target: T1, ΔF508-CFTR; experiment: CFTR cell surface levels using HRP-tagged ΔF508-CFTR expressing CFBE cells, intrinsic corrector capacity; design: % Activation: concentration or dose not given beside the values
Procedure, shortened: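 Read-out: chemiluminescent HRP activity of ECL4-HRP-tagged ΔF508-CFTR at the cell surface, 15 min substrate in dark. Normalized as 100×(sample−DMSO)/(positive control−DMSO).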

[3] = biological target: T2, CFTR ΔF508 (Homo sapiens, UniProt P13569, DEL508-508); experiment: Chronic TECC assay, primary bronchial epithelial cells of CF patients homozygous for CFTR ΔF508 (corrector, co-corrector and potentiator); details: for % Activity at 3 μM (AUC**): test compound at 3 μM
T2 construct: bronchial epithelial cells isolated from CF patients homozygous for the CFTR ΔF508 mutation; McGill University; Asterand; University of North Carolina hAEC-CF; host or cells: primary human bronchial epithelial cells from CF patients homozygous for ΔF508, differentiated at air-liquid interface
T2 sequence (P13569 with tags, fused parts or gaps DEL508-508): as above
Description: Primary Bronchial Epithelial Cells Protocol
The TECC (Tranepithelial Clamp Circuit, EP-design) assay measures the functionality of the cystic fibrosis Transmembrane Conductance regulator (CFTR) by measuring the short circuit current (Isc) generated over the basolateral and apical membrane of lung epithelial cells. In TECC the transepithelial potential PD and transepithelial resistance (Rt) are measured in an open circuit and transformed to Ieq using Ohm's law. 24 Wells can be measured simultaneously allowing a higher throughput compared to Ussing chambers.
For this purpose, bronchial epithelial cells isolated from CF patients homozygous for the CFTR ΔF508 mutation (hAEC-CF, Epithelix, Geneva, Switzerland; McGill University, Montreal, Qc; Asterand, Detroit, Mich.; University of North Carolina, Chapel Hill, N.C.) are plated on type IV collagen-coated Transwell® supports (Costar).
For electrophysiological recording of the “chronic” experiments, the human airway epithelia are mounted in the TECC heating plate for electrophysiological measurement and kept at 37° C. The epithelia are bathed in a NaCl-Ringer solution (120 mM NaCl, 25 mM NaHCO3, 1.2 mM CaCl2, 1.2 mM MgCl2, 0.8 mM KH2PO4, 0.8 mM K2HPO4, pH 7.4, 5 mM glucose) on both the basolateral and apical sides. Test compounds (corrector, co-corrector, 4-[(2R,4R)-4-({[1-(2,2-difluoro-1,3-benzodioxol-5-yl)cyclopropyl]carbonyl}amino)-7-(difluoromethoxy)-3,4-dihydro-2H-chromen-2-yl]benzoic acid, and potentiator, N-(3-carbamoyl-5,5,7,7-tetramethyl-4,7-dihydro-5H-thieno[2,3-c]pyran-2-yl)-1H-pyrazole-5-carboxamide), are re-added to the recording solution prior to measurement. […] Apical amiloride is used to inhibit the endogenous ENaC currents while forskolin is applied on both apical and basolateral side to stimulate CFTR. Measurements are done during a 20 minute timeframe with recordings every 2 minutes. The increase in Ieq is used as a measure for the increased CFTR activity, EC50 values can be generated by measuring impact of different concentrations of compound on Ieq on primary cells, for this purpose each transwell is treated with a different compound concentration. […] Raw data were normalized to percentage activity values using the equation: 100×(Sample−Negative control)/(Positive control−Negative Control).

[4] = HRP-tagged ΔF508-CFTR CFBE cells, in the presence of 3 μM co-corrector
[5] = HRP-tagged ΔF508-CFTR CFBE cells, in the presence of 3 μM co-corrector, read-out: EC50
[6] = HRP-tagged ΔF508-CFTR expressing CFBE41o- cells, compound alone (intrinsic corrector capacity), 20 hours at 33° C.
[7] = HRP-tagged ΔF508-CFTR expressing CFBE41o- cells, compound alone (intrinsic corrector capacity), 20 hours at 33° C., read-out: EC50
[8] = chronic TECC, test compound at 1 μM, AUC = full area under the curve upon forskolin stimulation
[9] = chronic TECC, AUC = full area under the curve upon forskolin stimulation, read-out: EC50 (nM) (AUC**)
[10] = chronic TECC, AUC = full area under the curve upon forskolin stimulation

| Structure (SMILES) | % Activation [1, 4] [%] | EC50 [1, 5] [nM] | % Activation [2, 6] [%] | EC50 [2, 7] [nM] | % Activity at 1 μM (AUC**) [3, 8] [%] | EC50 ([3]; chronic TECC, Ieq = calculations based on the maximum current, read-out: EC50 (nM) (Ieq*)) | % Activity at 1 μM (Ieq*) ([3]; chronic TECC, test compound at 1 μM, Ieq = calculations based on the maximum current) [%] | EC50 [3, 9] [nM] | % Activity at 3 μM (AUC**) [3, 10] [%] | EC50 [1] [nM] | EC50 [2] [nM] | EC50 [3] [nM] |
| --- | --- | --- | --- | --- | --- | --- | --- | --- | --- | --- | --- | --- |
| CN(C)S(=O)(=O)NC(=O)c1cc(N2CCC(N3CCOCC3)CC2)c2c(C3CCC3)nn(C3CCCCC3)c2n1 [Compound 420, 3-cyclobutyl-1-cyclohexyl-N-(dimethylsulfamoyl)-4-[4-(morpholin-4-yl)piperidin-1-yl]-1H-pyrazolo[3,4-b]pyridine-6-carboxamide] | 486.65 | 209 | 283.1 | 472 | 223.3333 | – | – | – | – | – | – | – |
| CC1CN(c2ccc(-c3cc(C(=O)NS(C)(=O)=O)nc4c3c(C(C)C)nn4C3CCCCC3)cn2)CC(C)O1 (stereo not shown) [Compound 93, 1-cyclohexyl-4-[6-(2,6-dimethylmorpholin-4-yl)pyridin-3-yl]-N-(methanesulfonyl)-3-(propan-2-yl)-1H-pyrazolo[3,4-b]pyridine-6-carboxamide] | 456.5 | 270 | 224.23 | 501 | – | < 30 | 220 | – | – | – | – | – |
| CN(C)S(=O)(=O)NC(=O)c1cc(N2CCC(N3CCC(O)CC3)CC2)c2c(C3CCC3)nn(-c3ccc(F)cc3)c2n1 [Compound 605, 3-cyclobutyl-N-(dimethylsulfamoyl)-1-(4-fluorophenyl)-4-(4-hydroxy[1,4'-bipiperidin]-1'-yl)-1H-pyrazolo[3,4-b]pyridine-6-carboxamide] | 395.8 | 723 | 207.5 | 317 | 726.6667 | – | – | – | – | – | – | – |
| COCC1CCN(c2cc(C(=O)NS(C)(=O)=O)nc3c2c(C2CCC2)nn3-c2ccc(F)cc2)CC1 [Compound 316, 3-cyclobutyl-1-(4-fluorophenyl)-N-(methanesulfonyl)-4-[4-(methoxymethyl)piperidin-1-yl]-1H-pyrazolo[3,4-b]pyridine-6-carboxamide] | 555.55 | 24.4 | 380.5 | 183 | 452.88 | – | – | 45 | – | – | – | – |
| CN(C)S(=O)(=O)NC(=O)c1cc(N2CCN(c3ccncc3)CC2)c2c(C3CCC3)nn(C3CCCCC3)c2n1 [Compound 469, 3-cyclobutyl-1-cyclohexyl-N-(dimethylsulfamoyl)-4-[4-(pyridin-4-yl)piperazin-1-yl]-1H-pyrazolo[3,4-b]pyridine-6-carboxamide] | 469.4 | 125 | 253.8 | 204 | 293.3333 | – | – | 108 | – | – | – | – |
| COCCN(CCOC)c1ccc(-c2cc(C(=O)NS(C)(=O)=O)nc3c2c(C(C)C)nn3-c2ccnc(N3CCOCC3)c2)cn1 [Compound 252, 4-{6-[bis(2-methoxyethyl)amino]pyridin-3-yl}-N-(methanesulfonyl)-1-[2-(morpholin-4-yl)pyridin-4-yl]-3-(propan-2-yl)-1H-pyrazolo[3,4-b]pyridine-6-carboxamide] | 310.75 | 1690 | 115.2 | 396 | 248.51 | – | – | – | – | – | – | – |
| COC1CCN(C2CCN(c3cc(C(=O)NS(=O)(=O)N4CCC4)nc4c3c(C3CCC3)nn4-c3ccc(F)cc3)CC2)CC1 [Compound 632, N-(azetidine-1-sulfonyl)-3-cyclobutyl-1-(4-fluorophenyl)-4-(4-methoxy[1,4'-bipiperidin]-1'-yl)-1H-pyrazolo[3,4-b]pyridine-6-carboxamide] | 466.83 | 154 | 252.75 | 304 | – | – | – | 29.3 | 237.1158 | – | – | – |
| CN(C)S(=O)(=O)NC(=O)c1cc(N2CCC(N3CCC(F)C3)CC2)c2c(C3CCC3)nn(-c3ccc(F)cc3)c2n1 (stereo not shown) [Compound 541, 3-cyclobutyl-N-(dimethylsulfamoyl)-1-(4-fluorophenyl)-4-[4-(3-fluoropyrrolidin-1-yl)piperidin-1-yl]-1H-pyrazolo[3,4-b]pyridine-6-carboxamide] | 457.2 | 115 | 231.7 | 444 | 320 | – | – | – | – | – | – | – |
| CS(=O)(=O)NC(=O)c1cc(N2CCC(N3CCCCC3)CC2)c2c(C3CCC3)nn(-c3ccccc3)c2n1 [Compound 365, 4-([1,4′-bipiperidin]-1′-yl)-3-cyclobutyl-N-(methanesulfonyl)-1-phenyl-1H-pyrazolo[3,4-b]pyridine-6-carboxamide] | 469.95 | – | 313 | – | – | – | – | – | – | 271 | 1670 | 200 |
| CCOC(=O)N1CCN(C2CCN(c3cc(C(=O)NS(=O)(=O)N(C)C)nc4c3c(C3CCC3)nn4-c3ccc(F)cc3)CC2)CC1 [Compound 590, ethyl 4-(1-{3-cyclobutyl-6-[(dimethylsulfamoyl)carbamoyl]-1-(4-fluorophenyl)-1H-pyrazolo[3,4-b]pyridin-4-yl}piperidin-4-yl)piperazine-1-carboxylate] | 487.9 | 31.4 | 290.3 | 86.7 | – | – | – | – | 220.4586 | – | – | – |
| CS(=O)(=O)NC(=O)c1cc(OCC2CCOCC2)c2c(C3CCC3)nn(-c3ccc(F)cc3)c2n1 [Compound 318, 3-cyclobutyl-1-(4-fluorophenyl)-N-(methanesulfonyl)-4-[(oxan-4-yl)methoxy]-1H-pyrazolo[3,4-b]pyridine-6-carboxamide] | 359.5 | 184 | 183.45 | 411 | 439.94 | – | – | – | – | – | – | – |
| COCC1CCN(c2cc(C(=O)NS(=O)(=O)CCN3CCOCC3)nc3c2c(C2CCC2)nn3-c2ccccc2)CC1 [Compound 267, 3-cyclobutyl-4-[4-(methoxymethyl)piperidin-1-yl]-N-[2-(morpholin-4-yl)ethanesulfonyl]-1-phenyl-1H-pyrazolo[3,4-b]pyridine-6-carboxamide] | 433 | 57.1 | 274.8 | 172 | – | – | – | 130 | – | – | – | – |
| CN(C)C[C@@H](F)C1CCN(c2cc(C(=O)NS(C)(=O)=O)nc3c2c(C2CCC2)nn3-c2ccccc2)CC1 [Compound 219, 3-cyclobutyl-4-{4-[(1S)-2-(dimethylamino)-1-fluoroethyl]piperidin-1-yl}-N-(methanesulfonyl)-1-phenyl-1H-pyrazolo[3,4-b]pyridine-6-carboxamide] | 524.4 | 230 | 381.1 | 764 | 298.20 | – | – | – | – | – | – | – |
| CN1CCN(c2ccc(-c3cc(C(=O)NS(=O)(=O)N(C)C)nc4c3c(C3CCC3)nn4C3CCCCC3)cn2)CC1 [Compound 551, 3-cyclobutyl-1-cyclohexyl-N-(dimethylsulfamoyl)-4-[6-(4-methylpiperazin-1-yl)pyridin-3-yl]-1H-pyrazolo[3,4-b]pyridine-6-carboxamide] | 403.1 | 382 | 197.8 | 763 | 239.0643 | – | – | – | – | – | – | – |
| CCS(=O)(=O)NC(=O)c1cc(N2CCN(c3ccncc3)CC2)c2c(C3CCC3)nn(C3CCCCC3)c2n1 [Compound 470, 3-cyclobutyl-1-cyclohexyl-N-(ethanesulfonyl)-4-[4-(pyridin-4-yl)piperazin-1-yl]-1H-pyrazolo[3,4-b]pyridine-6-carboxamide] | 485.5 | 115 | 275.4 | 231 | 210 | – | – | – | – | – | – | – |
